Among the data in patent publication US6458781B1, “Substituted diarylalkyl amides as calcium channel antagonists” (priority 1998, dated 2002) are inhibition, IC50 and melting point values, retold here.

The term IC50 denotes the concentration that gives 50% inhibition. By melting point is commonly meant the temperature, or range, at which the solid turns liquid.

Molecules are shown by their SMILES. Where two headings read alike, the source gives them in different places.

The target of data set [1] is T1, N-type calcium channels in IMR-32 cells (Homo sapiens, UniProt Q00975).
T1 construct: host or cells: IMR-32 cells differentiated with dibutyryl cAMP and bromodeoxyuridine
Put plainly: N-type Ca2+ channel blocking potency in IMR-32 cells using Indo-1. Type of data set: cell-based. The conditions noted are these: for inhibition at 1 µM / inhibition at 10 µM: IMR-32, IMR-32 cells; for inhibition at 1 µM: read-out: IMR32 % blockage at 1 μM; for inhibition at 10 µM: read-out: IMR32 % blockage at 10 μM; for IC50: IMR-32 cells. The protocol: Measurement of N-type Ca^2+ Channel Blocking Potencies of Compounds in IMR-32 Cells Using the Fluorescent Ca^2+ Indicator Indo-1
IMR-32 cells are a human tumoral cell line of neural origin. […] Calcium flux into these cells may be induced by stimulation with elevated potassium concentrations. The L-channel component of calcium flux may be blocked by adding 5 μM nitrendipine. The remaining component of calcium entry into the IMR-32 cells is due to calcium flux through N-type calcium channels. Intracellular calcium concentrations are measured using the fluorescent calcium indicator Indo-1. The effect of drug concentration on calcium uptake is studied.
The IMR-32 cell line was obtained from the American Type Culture Collection (Rockville, Md.). Cells were grown in Eagle's Minimum Essential Medium with Earle's salts supplemented with 10% fetal bovine serum, 2 mM L-Gln and antibiotic/antimycotic mixture (Gibco). At approximately 80% confluency, differentiation was induced by the addition of 1 mM dibutyryl cAMP and 2.5 μM bromodeoxyuridine to the medium. After 7 to 13 days of differentiation, cells were detached using 0.5 mM EDTA and loaded with 5 μM Indo-1 acetoxymethyl ester (Molecular Probes, Eugene, Oreg.) at 30° C. for 45 minutes. Loaded cells were washed twice, resuspended (˜10^7 cells/mL) in assay buffer (10 mM HEPES/Tris pH 7.4 in Hank's Balanced Salt Solution without bicarbonate or phenol red containing 0.5% bovine serum albumin) and kept on ice until use. Fluorescence measurements were carried out in a Photon Technology International (PTI, South Brunswick, N.J.) Model RF-F3004 spectrofluorometer with dual emission monochromators using excitation at 350 nm and emission at 400 and 490 nm. The instrument was equipped with a thermostated cuvette holder with stirring capabilities as well as with a computer-controlled pump which allowed for reagent addition during measurement. Instrument control and data collection was done by PTI's OSCAR software running on an IBM compatible computer. Different concentrations of the test compounds (60 μL in dimethyl sulfoxide) were added to 5.94 mL of assay buffer containing approximately 3×10^6 loaded cells, and 5 μM Nitrendipine (in 30 μL EtOH) to block L-type Ca^2+ channels. Samples were incubated for 10 minutes at 30° C. and the aliquot into three 10×10 mm disposable acrylic cuvettes. Emission signals at 400 and 490 nm were acquired from each cuvette at 30° C. for 50 seconds. At 20 seconds after the start of reading, cells were depolarized by the addition of 160 μL of stimulation solution (1 M KCl, 68 mM CaCl2) to the cuvette via the computer-controlled pump. Ratio of dual emission signals (400/490 nm), which is proportional to intracellular Ca^2+ concentration, was plotted against time, and the difference between maximal response after stimulation and basal value (before stimulation) was determined. Values obtained in this way were plotted as a function of drug concentration. IC50 values of test compounds were calculated by fitting a four-parameter logistic function to the data using the least squares method.

Data set [2] addresses T2, L-type calcium channels in A10 cells (Rattus norvegicus, UniProt P22002).
T2 construct: which endogenously expresses L-type calcium channels; host or cells: A10 rat embryonic thoracic aorta smooth muscle cells
As to the kind of experiment: L-type Ca2+ channel blocking potency in A10 cells (FLIPR). It counts as cell-based. To be noted: read-out: FLPA10 IC50. How it is done: Measurement of L-type Ca^2+ Channel Blocking Potencies of Compounds in A10 Cells
Calcium flux through voltage-sensitive calcium channels was assessed by time-resolved monitoring of the fluorescence of pre-loaded calcium-sensitive dyes using FLIPR, a fluorescent image plate reader (Molecular Devices Co.). The A10 smooth muscle cell line derived from embryonic thoracic aorta of the DBIX rat (ATCC, CRL-1476) which endogenously expresses L-type calcium channels. The growth media for A10 cells was Ham's F12/DME high glucose (Irvine Scientific, 9052), supplemented with 20% fetal bovine serum (HyClone Labs, A-1115-L), and 1% each of L-glutamine and antibiotic-antimycotic (same source as above).
Cells were grown to confluency and replated on black-sided 96-well plates (Costar, 3603) for use in FLIPR. Two days after replating, growth media was removed and cells were loaded at 37° C. with 100 μL media containing 1 μM Oregon Green 488 Bapta-1 dye (Molecular Probes, O-6807) for 1 to 3 hours. The dye-containing media was then washed away with buffer (composition in mM: 1.25 CaCl2, 1.2 MgSO4, 11 glucose, 10 HEPES, 3.0 KCl, 137.0 NaCl, pH 7.4 with Tris base) in a Denley Cellwash (Labsystems, CW018B). The residual buffer volume was adjusted to 50 μL. A 5 minute drug-pre-incubation period at 35° C. was initiated when 50 μL of drug-containing buffer was pipetted into the cell plate with the 96-well pipettor integrated in the FLIPR apparatus. Fluorescent counts were monitored at 20 second intervals for 360 seconds, beginning 60 seconds prior to the delivery of drug-containing buffer. Following drug addition, 100 μL aliquots of a high K^+, depolarizing stimulus (composition in mM: 1.25 CaCl2, 1.2 MgSO4, 11 glucose, 10 HEPES, 140.0 KCl, pH 7.4 with Tris base) were added to each well, and fluorescence was monitored at 1 second intervals for 120 seconds beginning 10 seconds prior to the stimulus addition. CCD camera exposure time was 0.4 seconds, laser excitation was at 488 nm with a power of 0.2-0.5W, and a 510 to 560 nm bandpass interference filter preceded the camera.
Data was analyzed as a summation of fluorescent counts above basal during the stimulation period (an approximation of area under the curve), after normalizing the data with a spatial uniformity correction (for variations in laser illumination and cell density) and a negative control correction (zero calcium increase defined as the fluorescence reading in the presence of saturating pharmacologic block of the respective calcium channel). Drug effects were expressed as percent inhibition of fluorescence from an average of 8 K^+-stimulated wells which were pre-treated in the drug incubation period with buffer only. In the A10 cells, the pharmacologic agent used to define zero calcium influx was nitrendipine (RBI, N-144) at a final concentration of 1.0×10^−6 M.

[3] abbreviates: 5 μM nitrendipine present, read-out: IMR32 IC50.
Where [4] appears, read: estimated from two data points, read-out: IMR32 IC50 (estimated IC50 values based on two data points).

T1 sequence (Q00975 whole entry): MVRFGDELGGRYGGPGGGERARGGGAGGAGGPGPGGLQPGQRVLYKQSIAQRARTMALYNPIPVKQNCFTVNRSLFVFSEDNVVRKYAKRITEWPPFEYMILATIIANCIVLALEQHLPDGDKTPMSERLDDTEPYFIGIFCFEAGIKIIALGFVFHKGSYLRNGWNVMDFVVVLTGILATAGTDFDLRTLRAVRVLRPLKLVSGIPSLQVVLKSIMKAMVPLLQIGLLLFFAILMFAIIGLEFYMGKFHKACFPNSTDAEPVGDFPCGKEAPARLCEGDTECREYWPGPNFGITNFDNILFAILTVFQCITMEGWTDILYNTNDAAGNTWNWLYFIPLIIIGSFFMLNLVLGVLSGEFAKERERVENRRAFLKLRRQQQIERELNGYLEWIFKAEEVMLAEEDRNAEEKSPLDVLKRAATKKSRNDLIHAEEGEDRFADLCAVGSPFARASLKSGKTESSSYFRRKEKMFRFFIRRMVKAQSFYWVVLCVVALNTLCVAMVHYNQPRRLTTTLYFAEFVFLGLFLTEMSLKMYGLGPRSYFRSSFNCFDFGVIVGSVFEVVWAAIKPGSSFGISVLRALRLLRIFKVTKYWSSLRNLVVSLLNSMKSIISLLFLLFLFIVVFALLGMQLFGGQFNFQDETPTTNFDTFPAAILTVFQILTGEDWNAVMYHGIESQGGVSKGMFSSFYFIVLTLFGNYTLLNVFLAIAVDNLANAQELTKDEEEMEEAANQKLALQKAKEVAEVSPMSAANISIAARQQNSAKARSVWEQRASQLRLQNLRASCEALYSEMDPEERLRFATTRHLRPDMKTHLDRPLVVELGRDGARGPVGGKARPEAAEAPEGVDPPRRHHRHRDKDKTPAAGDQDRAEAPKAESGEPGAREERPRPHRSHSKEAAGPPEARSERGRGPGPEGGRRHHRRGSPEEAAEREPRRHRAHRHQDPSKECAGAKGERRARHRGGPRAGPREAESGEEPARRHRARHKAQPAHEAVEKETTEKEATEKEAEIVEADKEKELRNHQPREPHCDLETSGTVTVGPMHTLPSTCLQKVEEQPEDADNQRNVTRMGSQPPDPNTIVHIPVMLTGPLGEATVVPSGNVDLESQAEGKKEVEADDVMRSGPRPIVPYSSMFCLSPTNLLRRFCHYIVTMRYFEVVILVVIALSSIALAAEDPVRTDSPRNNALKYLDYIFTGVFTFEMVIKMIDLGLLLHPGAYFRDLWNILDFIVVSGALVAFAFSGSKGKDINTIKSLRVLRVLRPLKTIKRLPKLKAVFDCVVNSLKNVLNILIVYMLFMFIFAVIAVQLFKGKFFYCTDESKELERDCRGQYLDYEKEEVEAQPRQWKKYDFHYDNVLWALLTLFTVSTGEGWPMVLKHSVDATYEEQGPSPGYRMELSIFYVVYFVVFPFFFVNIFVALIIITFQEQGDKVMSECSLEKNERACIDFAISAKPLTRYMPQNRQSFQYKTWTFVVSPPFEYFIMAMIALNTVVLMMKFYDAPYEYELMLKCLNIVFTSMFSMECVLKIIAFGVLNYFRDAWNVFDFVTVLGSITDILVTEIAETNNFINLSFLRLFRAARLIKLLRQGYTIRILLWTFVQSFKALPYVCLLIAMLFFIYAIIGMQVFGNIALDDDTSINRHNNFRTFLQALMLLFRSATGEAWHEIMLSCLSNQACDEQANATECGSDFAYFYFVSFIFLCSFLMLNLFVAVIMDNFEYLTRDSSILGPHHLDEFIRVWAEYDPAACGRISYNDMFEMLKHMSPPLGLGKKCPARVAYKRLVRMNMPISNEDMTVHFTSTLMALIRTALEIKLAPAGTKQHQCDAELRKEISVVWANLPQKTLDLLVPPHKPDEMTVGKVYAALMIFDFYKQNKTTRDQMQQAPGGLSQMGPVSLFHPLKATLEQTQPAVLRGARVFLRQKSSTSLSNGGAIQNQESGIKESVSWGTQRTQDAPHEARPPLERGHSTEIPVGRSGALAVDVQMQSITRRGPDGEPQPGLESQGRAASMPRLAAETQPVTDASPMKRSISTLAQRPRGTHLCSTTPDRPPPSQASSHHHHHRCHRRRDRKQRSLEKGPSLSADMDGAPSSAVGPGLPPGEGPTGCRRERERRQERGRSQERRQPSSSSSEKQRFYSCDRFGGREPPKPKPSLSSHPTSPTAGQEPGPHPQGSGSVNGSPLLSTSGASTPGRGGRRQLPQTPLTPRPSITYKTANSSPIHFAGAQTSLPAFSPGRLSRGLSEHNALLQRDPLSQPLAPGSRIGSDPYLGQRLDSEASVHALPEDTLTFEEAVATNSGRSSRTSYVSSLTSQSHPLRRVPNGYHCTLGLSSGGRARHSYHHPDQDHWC
T1 sequence (P54289 25-956 partner limits assumed): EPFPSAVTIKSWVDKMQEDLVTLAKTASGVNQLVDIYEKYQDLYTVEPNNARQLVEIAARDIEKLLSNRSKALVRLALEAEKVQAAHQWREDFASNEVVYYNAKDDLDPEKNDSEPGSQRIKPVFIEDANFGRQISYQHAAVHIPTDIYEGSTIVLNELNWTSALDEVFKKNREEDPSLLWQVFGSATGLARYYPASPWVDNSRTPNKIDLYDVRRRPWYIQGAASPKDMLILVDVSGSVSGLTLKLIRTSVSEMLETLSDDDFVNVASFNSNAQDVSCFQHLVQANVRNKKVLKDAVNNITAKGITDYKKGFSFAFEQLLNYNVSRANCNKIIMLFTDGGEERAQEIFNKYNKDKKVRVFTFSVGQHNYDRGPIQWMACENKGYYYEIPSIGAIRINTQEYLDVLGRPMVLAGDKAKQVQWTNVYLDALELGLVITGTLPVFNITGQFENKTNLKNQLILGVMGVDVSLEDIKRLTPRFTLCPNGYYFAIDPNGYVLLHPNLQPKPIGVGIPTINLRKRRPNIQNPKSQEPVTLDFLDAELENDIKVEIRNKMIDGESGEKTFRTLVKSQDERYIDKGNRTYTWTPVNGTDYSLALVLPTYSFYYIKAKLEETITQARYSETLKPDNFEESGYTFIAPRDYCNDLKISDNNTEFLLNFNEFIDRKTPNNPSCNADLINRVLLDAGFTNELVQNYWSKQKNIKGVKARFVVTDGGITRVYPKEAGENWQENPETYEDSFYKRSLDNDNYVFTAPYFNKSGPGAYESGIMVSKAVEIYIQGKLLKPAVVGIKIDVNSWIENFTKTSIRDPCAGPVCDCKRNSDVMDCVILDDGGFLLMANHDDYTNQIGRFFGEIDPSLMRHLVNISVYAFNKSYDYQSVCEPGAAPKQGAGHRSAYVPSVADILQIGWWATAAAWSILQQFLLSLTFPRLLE
T1 sequence (P54289 957-1103 partner limits assumed): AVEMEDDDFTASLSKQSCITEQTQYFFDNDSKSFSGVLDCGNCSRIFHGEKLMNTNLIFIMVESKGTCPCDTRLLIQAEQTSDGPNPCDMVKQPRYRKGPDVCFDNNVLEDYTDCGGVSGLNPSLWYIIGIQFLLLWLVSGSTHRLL
T1 sequence (Q02641 whole entry partner): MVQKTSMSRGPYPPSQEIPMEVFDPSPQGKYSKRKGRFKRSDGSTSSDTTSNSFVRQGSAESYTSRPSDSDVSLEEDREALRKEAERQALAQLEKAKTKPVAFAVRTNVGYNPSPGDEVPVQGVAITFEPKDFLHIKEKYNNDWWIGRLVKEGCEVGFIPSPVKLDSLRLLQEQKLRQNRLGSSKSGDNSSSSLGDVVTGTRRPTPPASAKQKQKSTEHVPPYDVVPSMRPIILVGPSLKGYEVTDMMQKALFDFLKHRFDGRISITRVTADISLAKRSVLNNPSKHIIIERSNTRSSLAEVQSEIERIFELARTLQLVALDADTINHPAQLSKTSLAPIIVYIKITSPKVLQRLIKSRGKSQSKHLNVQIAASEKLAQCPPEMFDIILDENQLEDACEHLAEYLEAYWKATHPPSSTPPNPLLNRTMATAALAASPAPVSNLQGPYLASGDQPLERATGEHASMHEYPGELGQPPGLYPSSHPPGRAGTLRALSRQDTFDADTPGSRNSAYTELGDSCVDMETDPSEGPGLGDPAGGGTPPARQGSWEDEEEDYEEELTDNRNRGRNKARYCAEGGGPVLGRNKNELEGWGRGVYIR

Compound `CC(C)CC(NC(=O)N1CCN(C)CC1)C(=O)N1CCN(C(c2ccc(F)cc2)c2ccc(F)cc2)CC1` (stereo in doubt) [Example 47, (S)-4-Methyl-piperazine-1-carboxylic acid (1-{4-[bis-(4-fluoro-phenyl)-methyl]-piperazine-1-carbonyl}-3-methyl-butyl)-amide] returned a melting point of 65 to 78 °C. Moreover, in data set [1], the inhibition at 1 µM is 13% and the inhibition at 10 µM came to 54%. In data set [2], the IC50 amounted to 1.7 µM.

`CC(C)C[C@H](NC(=O)OC(C)(C)C)C(=O)NCCCC(c1ccc(F)cc1)c1ccc(F)cc1` [Example 6, (S)-{1-[4,4-Bis-(4-fluoro-phenyl)-butylcarbamoyl]-3-methyl-butyl}-carbamic acid tert-butyl ester]: the melting point was 50 to 55 °C. Moreover, in data set [1] (setting [3]), the IC50 is 1.3 µM.

`CC(C)C[C@H](NC(=O)N1CCCCCC1)C(=O)NCCCC1(c2ccccc2)C(=O)N(C)c2ccccc21` (stereo partly drawn) [Example 10, (S)-Azepane-1-carboxylic acid {3-methyl-1-[3-(1-methyl-2-oxo-3-phenyl-2,3-dihydro-1H-indol-3-yl)-propylcarbamoyl]-butyl}-amide] yielded a melting point of 181 to 182 °C. In addition, in data set [1] (setting [3]), the IC50 was found to be 2.6 µM.

Compound `CC(C)C[C@H](NC(=O)N1CCCCCC1)C(=O)NCc1nn(-c2ccccc2)c2ccccc12` [Example 11, (S)-Azepane-1-carboxylic acid {3-methyl-1-[(1-phenyl-1H-indazol-3-ylmethyl)-carbamoyl]-butyl}-amide] gave a melting point of 135 to 136 °C. Besides, the IC50 in data set [1] (setting [3]) is 4 µM.

For `CCC(C)[C@H](NC(=O)N1CCCCCC1)C(=O)NCCCC(c1ccc(F)cc1)c1ccc(F)cc1` (stereo partly drawn) [Example 16, (S)-Azepane-1-carboxylic acid {1-[4,4-bis-(4-fluoro-phenyl)-butylcarbamoyl]-2-methyl-butyl}-amide], the melting point was in the range of 50 to 60 °C. The half-inhibitory concentration (IC50) in data set [1] (setting [4]) was 0.61 µM. The half-inhibitory concentration (IC50) in data set [2] amounted to 0.27 µM.

Turning to `CC(C)C[C@H](NC(=O)N1CCN(c2ccccc2)CC1)C(=O)NCCCC(c1ccc(F)cc1)c1ccc(F)cc1` [Example 17, (S)-4-Phenyl-piperazine-1-carboxylic acid {1-[4,4-bis-(4-fluoro-phenyl)-butylcarbamoyl]-3-methyl-butyl}-amide], the melting point lay in the range of 138 to 141 °C. For the same compound, the half-inhibitory concentration (IC50) in data set [1] (setting [4]) was 2 µM. In addition, the 50% inhibitory concentration (IC50) in data set [2] turned out to be 0.074 µM.

Consider `CC(C)C[C@@H](C(=O)NCCCC(c1ccc(F)cc1)c1ccc(F)cc1)N1CCCCC1` [Example 22, (S)-4-Methyl-2-piperidin-1-yl-pentanoic acid [4,4-bis-(4-fluoro-phenyl)-butyl]-amide], for which the melting point lay within 52 to 70 °C. Also, in data set [1], the inhibition at 1 µM turned out to be 49% and the inhibition at 10 µM was 94%. Also, in data set [2], the IC50 worked out at 0.16 µM.

The compound `CC(C)C[C@@H](C(=O)NCCC(c1ccccc1)c1ccccc1)N1CCCCC1.Cl` [Example 24, (S)-4-Methyl-2-piperidin-1-yl-pentanoic acid (3,3-diphenyl-propyl)-amide monohydrochloride] displayed a melting point of 58 to 65 °C. Further, in data set [1], the inhibition at 1 µM worked out at 35% and the inhibition at 10 µM stood at 89%. The 50% inhibitory concentration (IC50) in data set [2] came out at 1.5 µM.

`CC(C)[C@H](NC(=O)N1CCCCCC1)C(=O)NCCCC(c1ccc(F)cc1)c1ccc(F)cc1` [Example 26, (S)-Azepane-1-carboxylic acid {1-[4,4-bis-(4-fluoro-phenyl)-butylcarbamoyl]-2-methyl-propyl}-amide] gave a melting point of 32 to 50 °C. The concentration for half-maximal inhibition (IC50) in data set [1] (setting [4]) was 0.84 µM. Moreover, the IC50 in data set [2] was 0.24 µM.

`CC(C)C[C@H](NC(=O)N1CCN(C)CC1)C(=O)NCCCC(c1ccc(F)cc1)c1ccc(F)cc1` [Example 29, (S)-4-Methyl-piperazine-1-carboxylic acid {1-[4,4-bis-(4-fluoro-phenyl)-butylcarbamoyl]-3-methyl-butyl)-amide] yielded a melting point of 73 to 91 °C. Also, in data set [1], the inhibition at 1 µM is 22% and the inhibition at 10 µM was found to be 82%. The half-maximal inhibitory concentration (IC50) in data set [2] is 1.2 µM.

As to `C[C@H](NC(=O)N1CCCCCC1)C(=O)NCCCC(c1ccc(F)cc1)c1ccc(F)cc1` [Example 30, (S)-Azepane-1-carboxylic acid {1-[4,4-bis-(4-fluoro-phenyl)-butylcarbamoyl]-ethyl}-amide], the melting point lay in the range of 29 to 49 °C. Further, in data set [1], the inhibition at 1 µM turned out to be 39% and the inhibition at 10 µM worked out at 100%. In data set [2], the IC50 was 1.3 µM.

As for `O=C(CNC(=O)N1CCCCCC1)N1CCN(C(c2ccc(F)cc2)c2ccc(F)cc2)CC1` [Example 32, (S)-Azepane-1-carboxylic acid (2-{4-[bis-(4-fluoro-phenyl)-methyl]-piperazin-1-yl}-2-oxo-ethyl)-amide], the melting point was in the range of 66 to 86 °C. For the same compound, the IC50 in data set [1] (setting [3]) came out at 0.47 µM. For the same compound, the concentration for half-maximal inhibition (IC50) in data set [2] came to 1.8 µM.

The compound `CC(C)C[C@H](NCc1ccc(C(C)(C)C)cc1)C(=O)N1CCN(C(c2ccc(F)cc2)c2ccc(F)cc2)CC1` [Example 58, (S)-1-{4-[Bis-(4-fluoro-phenyl)-methyl]-piperazin-1-yl}-2-(4-tert-butyl-benzylamino)-4-methyl-pentan-1-one] displayed a melting point of 57 to 62 °C. Also, the IC50 in data set [2] is over 3 µM.

Turning to `CC(C)C[C@H](NCc1ccc(OC(C)(C)C)cc1)C(=O)N1CCN(C(c2ccc(F)cc2)c2ccc(F)cc2)CC1` [Example 64, (S)-1-{4-[Bis-(4-fluoro-phenyl)-methyl]-piperazin-1-yl}-2-(4-tert-butoxy-benzylamino)-4-methyl-pentan-1-one], the melting point was in the range of 56 to 61 °C. The IC50 in data set [2] came out at 0.089 µM.
